Assay results reported in patent publication US5153352A, “Process for preparation of intermediates of carbocyclic nucleoside analogs” (priority 1990, dated 1992).
Converted amounts (≈) assume the structure as drawn.

What was measured:
HSV-1(E-377) = assay: plaque reduction, HSV-1(E-377) in Vero cells; type: cell-based, Herpes simplex virus type 1; conditions: Human alphaherpesvirus 1, plaque reduction 50%, read-out: MIC50
Description: After the adsorption period, the infected cell monolayers were treated in duplicate with serial dilutions of the test compound. Duplicate cell controls containing medium alone and virus controls containing medium and virus were run simultaneously with the test compound. […] Plaques visible to the unaided eye were counted and the mean number of plaques in the duplicate wells for each compound concentration tested and for the untreated, virus infected controls were determined.

Herpesvirus 1 = assay: in vivo activity against intraperitoneal Herpesvirus 1 challenge in mice; parameters: species or system mouse infected with Herpesvirus 1 (strain 123); conditions: for No. Dead/No. Infected: 7 doses; for GMTD (geometric mean time to death): monitored daily for 21 days
Description: Four-week-old female outbred Swiss mice (CD 1, VAF+, Charles River Labs) were housed 5 per Microisolator® cage. Feed and water were supplied ad libitum. Fifteen mice were randomly assigned to each of the following treatment groups:
2. diluent (0.4% CMC/PBS controls)
3. 100 mg/kg test compound
4. 32 mg/kg test compound
5. 10 mg/kg test compound
6. 3.2 mg/kg test compound
Test compounds were diluted in 0.4% carboxymethylcellulose (CMC) prepared in phosphate buffered saline (PBS) at concentrations consistent with dosing at 0.1 ml per 10 q of body weight. Compounds were administered subcutaneously once daily for a total of 7 doses. Five mice in each treatment group served as uninfected toxicity controls. The remaining ten mice in each group were challenged intraperitoneally with an LD90 dose of the twelfth in vivo passage of Herpesvirus 1 (strain 123). Virus challenge was administered two hours after the first dose of compound was given. Mortality was monitored daily for 21 days. The mortality rates, average day of death, geometric mean time to death and virus rating were calculated for each treatment group.

[1] = test system: duck hepatitis B virus (DHBV); assay: efficacy against hepatitis B virus in vivo in ducklings; parameters: species or system Peking duckling infected with duck hepatitis B virus
Description: The test method is an adaptation of the method of Smee, et al., Antimicrob. Agents Chemotherap. 27 277 (1985). The serum level of duck hepatitis B virus (DHBV) DNA was monitored in 6 infected Peking ducklings from age 6 days to age 27 days. Four ducklings were treated with 70 mg/kg/day IP, b.i.d. of the test compound as a 3 mg/ml solution in 0.9% aqueous NaCl on days 10-17. Two control ducklings were treated with 23 ml/kg/day IP, b.i.d. of 0.9% aqueous NaCl on days 10-17. The level of DHBV DNA in the duckling serum was measured daily.

Nc1nc2c(ncn2C2CC(CO)C2CO)c(=O)[nH]1 (stereo not drawn) [Example 1I, 9-(2',3'-Bis(hydroxymethyl)cyclobutyl)guanine] was tested, and the EC50 (HSV-1(E-377)) was 0.5 µg/mL (≈ 1.88 µM), the “VR (virus rating, GMTD of experimental/GMTD of diluent-treated control)” value (Herpesvirus 1; 3.2 mg/kg s.c.) was 1.3 and the “No. Dead/No. Infected” value (Herpesvirus 1; 3.2 mg/kg s.c. once daily) was 8/10. For the same molecule, the “GMTD (geometric mean time to death)” value (Herpesvirus 1; 3.2 mg/kg s.c.) was 10.8, the “VR (virus rating, GMTD of experimental/GMTD of diluent-treated control)” value (Herpesvirus 1; 10 mg/kg s.c.) was 1.6 and the “No. Dead/No. Infected” value (Herpesvirus 1; 10 mg/kg s.c. once daily) was 5/10. For the same molecule, the “GMTD (geometric mean time to death)” value (Herpesvirus 1; 10 mg/kg s.c.) was 13.0, the “VR (virus rating, GMTD of experimental/GMTD of diluent-treated control)” value (Herpesvirus 1; 32 mg/kg s.c.) was 2.5 and the “No. Dead/No. Infected” value (Herpesvirus 1; 32 mg/kg s.c. once daily) was 0/10. For the same molecule, the “GMTD (geometric mean time to death)” value (Herpesvirus 1; 32 mg/kg s.c.) was 21.0, the “Serum DHBV DNA” value ([1]; duck 1, age 6 days, before treatment) was 187 ng/mL and the “Serum DHBV DNA” value ([1]; duck 1, age 7 days, before treatment) was 156 ng/mL. The “Serum DHBV DNA” value ([1]; duck 1, age 8 days, before treatment) was 168 ng/mL, the “Serum DHBV DNA” value ([1]; duck 1, age 9 days, before treatment) was 233 ng/mL and the “Serum DHBV DNA” value ([1]; duck 1, age 10 days, 70 mg/kg/day IP days 10-17) was 213 ng/mL. For the same molecule, the “Serum DHBV DNA” value ([1]; duck 1, age 11 days, 70 mg/kg/day IP days 10-17) was 155 ng/mL, the “Serum DHBV DNA” value ([1]; duck 1, age 12 days, 70 mg/kg/day IP days 10-17) was 64 ng/mL and the “Serum DHBV DNA” value ([1]; duck 1, age 13 days, 70 mg/kg/day IP days 10-17) was 11 ng/mL. For the same molecule, the “Serum DHBV DNA” value ([1]; duck 1, age 14 days, 70 mg/kg/day IP days 10-17) was 6 ng/mL, the “Serum DHBV DNA” value ([1]; duck 1, age 15 days, 70 mg/kg/day IP days 10-17) was < 1 ng/mL and the “Serum DHBV DNA” value ([1]; duck 1, age 16 days, 70 mg/kg/day IP days 10-17) was < 1 ng/mL. The “Serum DHBV DNA” value ([1]; duck 1, age 17 days, 70 mg/kg/day IP days 10-17) was < 1 ng/mL, the “Serum DHBV DNA” value ([1]; duck 1, age 18 days, 70 mg/kg/day IP days 10-17) was < 1 ng/mL and the “Serum DHBV DNA” value ([1]; duck 1, age 19 days, 70 mg/kg/day IP days 10-17) was < 1 ng/mL. The “Serum DHBV DNA” value ([1]; duck 1, age 20 days, 70 mg/kg/day IP days 10-17) was < 1 ng/mL, the “Serum DHBV DNA” value ([1]; duck 1, age 21 days, 70 mg/kg/day IP days 10-17) was < 1 ng/mL and the “Serum DHBV DNA” value ([1]; duck 1, age 22 days, 70 mg/kg/day IP days 10-17) was 3 ng/mL. For the same molecule, the “Serum DHBV DNA” value ([1]; duck 1, age 23 days, 70 mg/kg/day IP days 10-17) was 12 ng/mL, the “Serum DHBV DNA” value ([1]; duck 1, age 24 days, 70 mg/kg/day IP days 10-17) was 16 ng/mL and the “Serum DHBV DNA” value ([1]; duck 1, age 25 days, 70 mg/kg/day IP days 10-17) was 31 ng/mL. For the same molecule, the “Serum DHBV DNA” value ([1]; duck 1, age 26 days, 70 mg/kg/day IP days 10-17) was 71 ng/mL, the “Serum DHBV DNA” value ([1]; duck 1, age 27 days, 70 mg/kg/day IP days 10-17) was 134 ng/mL and the “Serum DHBV DNA” value ([1]; duck 2, age 6 days, before treatment) was 143 ng/mL. The “Serum DHBV DNA” value ([1]; duck 2, age 7 days, before treatment) was 111 ng/mL, the “Serum DHBV DNA” value ([1]; duck 2, age 8 days, before treatment) was 121 ng/mL and the “Serum DHBV DNA” value ([1]; duck 2, age 9 days, before treatment) was 102 ng/mL. The “Serum DHBV DNA” value ([1]; duck 2, age 10 days, 70 mg/kg/day IP days 10-17) was 120 ng/mL, the “Serum DHBV DNA” value ([1]; duck 2, age 11 days, 70 mg/kg/day IP days 10-17) was 61 ng/mL and the “Serum DHBV DNA” value ([1]; duck 2, age 12 days, 70 mg/kg/day IP days 10-17) was 27 ng/mL. For the same molecule, the “Serum DHBV DNA” value ([1]; duck 2, age 13 days, 70 mg/kg/day IP days 10-17) was 2 ng/mL, the “Serum DHBV DNA” value ([1]; duck 2, age 14 days, 70 mg/kg/day IP days 10-17) was 1 ng/mL and the “Serum DHBV DNA” value ([1]; duck 2, age 15 days, 70 mg/kg/day IP days 10-17) was < 1 ng/mL. For the same molecule, the “Serum DHBV DNA” value ([1]; duck 2, age 16 days, 70 mg/kg/day IP days 10-17) was < 1 ng/mL, the “Serum DHBV DNA” value ([1]; duck 2, age 17 days, 70 mg/kg/day IP days 10-17) was < 1 ng/mL and the “Serum DHBV DNA” value ([1]; duck 2, age 18 days, 70 mg/kg/day IP days 10-17) was < 1 ng/mL. For the same molecule, the “Serum DHBV DNA” value ([1]; duck 2, age 19 days, 70 mg/kg/day IP days 10-17) was < 1 ng/mL, the “Serum DHBV DNA” value ([1]; duck 2, age 20 days, 70 mg/kg/day IP days 10-17) was < 1 ng/mL and the “Serum DHBV DNA” value ([1]; duck 2, age 21 days, 70 mg/kg/day IP days 10-17) was < 1 ng/mL. The “Serum DHBV DNA” value ([1]; duck 2, age 22 days, 70 mg/kg/day IP days 10-17) was < 1 ng/mL, the “Serum DHBV DNA” value ([1]; duck 2, age 23 days, 70 mg/kg/day IP days 10-17) was < 1 ng/mL and the “Serum DHBV DNA” value ([1]; duck 2, age 24 days, 70 mg/kg/day IP days 10-17) was < 1 ng/mL.
